Experimental data reported in patent US12692221B2 (priority 2024, dated 2026).

Key:
[1] = target: T1, alpha1D (h) (Homo sapiens, UniProt P25100); assay: Radioligand binding alpha1D (h) (antagonist radioligand), [^3H]prazosin, CHO cells
T1 construct: expressed in transfected cells; host or cells: CHO cells
T1 sequence (P25100 1-572): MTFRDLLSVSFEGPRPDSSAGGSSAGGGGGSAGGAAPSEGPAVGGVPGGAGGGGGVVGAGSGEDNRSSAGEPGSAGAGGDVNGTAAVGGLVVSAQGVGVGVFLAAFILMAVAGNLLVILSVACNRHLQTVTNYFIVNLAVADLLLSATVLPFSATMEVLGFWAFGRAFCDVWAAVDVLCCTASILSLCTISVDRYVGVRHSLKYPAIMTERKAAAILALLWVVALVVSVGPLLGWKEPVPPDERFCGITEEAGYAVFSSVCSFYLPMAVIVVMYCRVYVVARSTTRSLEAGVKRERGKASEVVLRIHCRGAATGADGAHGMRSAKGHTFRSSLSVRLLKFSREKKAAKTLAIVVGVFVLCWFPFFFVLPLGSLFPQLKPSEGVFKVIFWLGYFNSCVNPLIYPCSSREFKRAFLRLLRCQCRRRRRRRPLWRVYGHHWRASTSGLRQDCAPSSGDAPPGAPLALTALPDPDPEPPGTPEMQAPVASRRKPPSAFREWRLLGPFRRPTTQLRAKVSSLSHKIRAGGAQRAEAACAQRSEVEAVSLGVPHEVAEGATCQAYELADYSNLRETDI
Procedure: (§1) Methods—Binding Assays: In vitro binding assays were performed using human recombinant receptors expressed in mammalian cell lines. Receptors were expressed in either HEK-293 or CHO cells depending on the target, and assay conditions (radioligand, concentration, nonspecific competitor, temperature, and incubation time) were optimized for each receptor. All assays were conducted in triplicate, and specific binding was quantified by scintillation counting as the detection method for each listed assay.
(§2) Specific binding was expressed as a percentage of control-specific binding, and percent inhibition was calculated using the formula in Ex. 8 above. Half-maximal inhibitory concentrations (IC50) were determined by non-linear regression analysis of the inhibition curves using the Hill equation (see Ex. 8). Inhibition constants (Ki) were calculated using the Cheng-Prusoff equation (see Ex. 8). KD values used in these calculations had been previously established for each receptor under the assay conditions (see Table 6). Data analysis was performed using software developed at Cerep and validated against SigmaPlot 4.0 for Windows.

[2] = target: T2, D1 (h) (Homo sapiens, UniProt P21728); assay: Radioligand binding D1 (h) (antagonist radioligand), [^3H]SCH 23390, CHO cells
T2 construct: expressed in transfected cells; host or cells: CHO cells
T2 sequence (P21728 whole entry): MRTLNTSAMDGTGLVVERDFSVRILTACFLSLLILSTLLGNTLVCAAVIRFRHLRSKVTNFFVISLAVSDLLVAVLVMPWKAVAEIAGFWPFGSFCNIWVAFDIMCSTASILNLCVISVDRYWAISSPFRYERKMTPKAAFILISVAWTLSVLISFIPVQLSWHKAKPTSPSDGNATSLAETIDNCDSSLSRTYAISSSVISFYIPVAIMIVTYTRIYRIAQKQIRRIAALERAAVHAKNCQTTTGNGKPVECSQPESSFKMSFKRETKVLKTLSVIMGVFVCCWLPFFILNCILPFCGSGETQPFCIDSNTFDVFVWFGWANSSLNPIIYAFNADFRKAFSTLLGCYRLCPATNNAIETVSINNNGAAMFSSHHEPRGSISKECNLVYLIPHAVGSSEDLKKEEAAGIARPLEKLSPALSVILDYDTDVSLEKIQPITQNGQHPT
Procedure: as §1, §2

[3] = target: T3, M1 (h) (Homo sapiens, UniProt P11229); assay: Radioligand binding M1 (h) (antagonist radioligand), [^3H]pirenzepine, CHO cells
T3 construct: expressed in transfected cells; host or cells: CHO cells
T3 sequence (P11229 1-460): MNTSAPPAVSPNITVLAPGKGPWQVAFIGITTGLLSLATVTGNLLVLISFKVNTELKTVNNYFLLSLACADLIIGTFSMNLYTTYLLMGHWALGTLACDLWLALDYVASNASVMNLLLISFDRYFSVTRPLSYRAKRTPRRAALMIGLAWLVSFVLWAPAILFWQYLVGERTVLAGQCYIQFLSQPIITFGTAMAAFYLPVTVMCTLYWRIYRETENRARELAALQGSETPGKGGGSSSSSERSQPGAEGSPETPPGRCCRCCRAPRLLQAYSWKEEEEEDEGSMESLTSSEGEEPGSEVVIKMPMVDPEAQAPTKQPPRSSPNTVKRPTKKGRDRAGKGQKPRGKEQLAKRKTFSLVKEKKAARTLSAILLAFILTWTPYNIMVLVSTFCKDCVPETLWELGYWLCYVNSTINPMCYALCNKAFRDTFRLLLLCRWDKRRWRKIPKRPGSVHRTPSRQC
Procedure: as §1, §2

[4] = target: T4, dopamine transporter(h) (Homo sapiens, UniProt Q01959); assay: Radioligand binding DA transporter (h) (antagonist radioligand), [^3H]BTCP, CHO cells
T4 construct: expressed in transfected cells; host or cells: CHO cells
T4 sequence (Q01959 whole entry): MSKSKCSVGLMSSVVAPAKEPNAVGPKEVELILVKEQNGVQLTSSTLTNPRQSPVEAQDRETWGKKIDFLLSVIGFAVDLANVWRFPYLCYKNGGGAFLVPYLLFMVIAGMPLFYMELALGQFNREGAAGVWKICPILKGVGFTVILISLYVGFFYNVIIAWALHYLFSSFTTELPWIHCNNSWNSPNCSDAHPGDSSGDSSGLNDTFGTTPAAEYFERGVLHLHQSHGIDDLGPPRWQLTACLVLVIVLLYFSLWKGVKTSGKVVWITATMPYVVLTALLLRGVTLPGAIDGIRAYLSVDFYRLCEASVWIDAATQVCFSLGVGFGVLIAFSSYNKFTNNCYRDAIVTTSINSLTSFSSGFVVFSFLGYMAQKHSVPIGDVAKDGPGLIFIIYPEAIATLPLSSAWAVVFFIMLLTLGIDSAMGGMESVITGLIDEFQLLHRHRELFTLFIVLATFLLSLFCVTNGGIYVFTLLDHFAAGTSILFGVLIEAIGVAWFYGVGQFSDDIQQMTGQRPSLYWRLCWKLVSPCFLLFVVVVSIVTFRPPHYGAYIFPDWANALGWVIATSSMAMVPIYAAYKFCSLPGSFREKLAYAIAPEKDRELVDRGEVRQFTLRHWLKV
Procedure: as §1, §2

[5] = target: 5-HT2B (Homo sapiens, UniProt P41595); assay: IP-One HTRF IP-1 accumulation functional assay, 5-HT2B/HEK293; assay type: cell-based; set-up: host or cells: HEK293
5-HT2B, sequence (P41595 whole entry): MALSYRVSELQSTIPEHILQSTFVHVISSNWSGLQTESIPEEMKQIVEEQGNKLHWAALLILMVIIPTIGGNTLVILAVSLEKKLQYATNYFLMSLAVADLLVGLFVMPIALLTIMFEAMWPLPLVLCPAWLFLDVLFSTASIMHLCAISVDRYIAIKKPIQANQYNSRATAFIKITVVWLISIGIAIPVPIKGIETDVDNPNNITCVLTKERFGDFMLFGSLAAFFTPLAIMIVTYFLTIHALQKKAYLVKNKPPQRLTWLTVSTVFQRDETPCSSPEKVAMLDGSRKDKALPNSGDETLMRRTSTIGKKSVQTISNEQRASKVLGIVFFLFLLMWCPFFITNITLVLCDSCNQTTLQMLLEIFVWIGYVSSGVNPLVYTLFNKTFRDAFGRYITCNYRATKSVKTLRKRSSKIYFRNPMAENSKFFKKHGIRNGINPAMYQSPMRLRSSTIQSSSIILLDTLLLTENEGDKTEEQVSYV
Procedure: Methods (5-HT2B IP-One Functional Activity Assays): Intracellular accumulation of IP-1 was measured using an IP-One HTRF) assay kit (Cat. #62IPAPEJ, Cisbio) at WuXi AppTec Co. Ltd. (Hong Kong) Discovery Biology Unit according to their standard protocols. Briefly, 5-HT2B/HEK293 were plated in a 384-well plate and incubated at 37° C. and 5% CO2 overnight. The reference compounds and screening compounds were 3.16-fold serially diluted in 100% DMSO for 10 points using Bravo. 70 nL of compounds were added to the cell plate using Echo555. Incubated for 60 minutes at 37° C. Added 3 μL of IP-1 d2 Reagent working solution and 3 μL of IP-1 Tb Cryptate Antibody working solution to all wells. The plates were incubated for 1 hour at room temperature and read on for fluorescence at 620 nm and 665 nm on an EnVision Multimode Plate Reader (PerkinElmer). The ratio of the acceptor and donor emission signals (665/620) were calculated for each individual well and substituted into the standard curve to obtain the log concentration of IP level. After converting to the antilog base IP-1, the average background control signal was subtracted from each well and values were normalized to the maximal response of 5-HT at 3 μM (100%). % MAX was calculated by taking the average normalized maximal response at the highest concentration tested. Data were analyzed using the four-parameter nonlinear regression curve-fitting function in GraphPad Prism 5 (GraphPad Software, San Diego, CA) to generate potency (EC50) values. Parameter constraint “Top=100” was used in the analysis of 5-HT2B IP-1. Represented plots show normalized IP-1 values versus compound concentrations; the corresponding numerical data are parameter estimates for the concentration-response curve using the 4-parameter nonlinear regression curve-fitting function in GraphPad Prism 10. “Top=100” parameter constraint was not enabled for the represented plot analysis.

Compound | Mean Percent Inhibition of Control Specific Binding [1] | Mean Percent Inhibition of Control Specific Binding [2] | Mean Percent Inhibition of Control Specific Binding [3] | Mean Percent Inhibition of Control Specific Binding [4] | EC50 [5]
COCc1cc(CCN)c(O)cc1CC(C)C [2CiBu-2OH-5MM, 2-(2-aminoethyl)-5-isobutyl-4-(methoxymethyl)phenol] | 11.8% | 4.0% | 4.9% | 22.3% | –
COCCc1cc(CCN)c(OC)cc1Br [Compound 2CB-5ME, reference compound] | 10.0% | 28.1% | 55.4% | 6.2% | 0.131 µM
COCc1cc(CCN)c(OC)cc1Br [Compound 2CB-5MM, 2-(4-bromo-2-methoxy-5-(methoxymethyl)phenyl)ethan-1-amine] | 9.5% | 21.1% | 43.4% | 10.7% | 0.0786 µM
COCc1cc(CCN)c(OC)cc1CC(C)C [Compound 2CiBu-5MM, 2-[4-isobutyl-2-methoxy-5-(methoxymethyl)phenyl]ethanamine] | 0.5% | −1.4% | 52.6% | 7.7% | 0.825 µM
